Target: T1, recombinant human NK3 receptor (Homo sapiens, UniProt P29371)
T1 construct: expressed in transfected cells; host or cells: HEK293 cells (transient expression), membranes
T1 sequence (P29371 1-465): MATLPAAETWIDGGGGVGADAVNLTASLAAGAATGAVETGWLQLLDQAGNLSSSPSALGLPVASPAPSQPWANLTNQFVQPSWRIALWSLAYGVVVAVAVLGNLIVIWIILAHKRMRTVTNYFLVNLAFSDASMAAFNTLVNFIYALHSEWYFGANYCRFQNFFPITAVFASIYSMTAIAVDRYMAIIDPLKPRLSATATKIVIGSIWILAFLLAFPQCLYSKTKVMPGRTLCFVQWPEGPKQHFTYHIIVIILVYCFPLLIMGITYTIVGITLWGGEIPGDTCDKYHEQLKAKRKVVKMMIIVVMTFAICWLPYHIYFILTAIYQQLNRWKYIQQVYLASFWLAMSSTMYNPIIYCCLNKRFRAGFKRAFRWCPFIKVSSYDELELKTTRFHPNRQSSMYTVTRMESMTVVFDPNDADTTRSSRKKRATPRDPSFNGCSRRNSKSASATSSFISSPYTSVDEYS
Assay: [3H]SR142801 competition binding assay
Settings: membranes from HEK293 cells transiently expressing recombinant human NK3 receptor; [3H]SR142801 radioligand; 75 min at RT; Ki by Cheng-Prussoff; read-out: Data Ki (hNK-3 receptor affinity)
Procedure: [^3H]SR142801 Competition Binding Assay
hNK3 receptor binding experiment were performed using [^3H]SR142801 (Catalog No. TRK1035, specific activity: 74.0 Ci/mmol, Amersham, GE Healthcare UK limited, Buckinghamshire, UK) and membrane isolated from HEK293 cells transiently expressing recombinant human NK3 receptor. After thawing, the membrane homogenates were centrifuged at 48,000×g for 10 min at 4° C., the pellets were resuspended in the 50 mM Tris-HCl, 4 mM MnCl2, 1 μM phosphoramidon, 0.1% BSA binding buffer at pH 7.4 to a final assay concentration of 5 μg protein/well. […] At the end of the incubation, membranes were filtered onto unitfilter (96-well white microplate with bonded GF/C filter preincubated 1 h in 0.3% PEI+0.3% BSA, Packard BioScience, Meriden, Conn.) with a Filtermate 196 harvester (Packard BioScience) and washed 4 times with ice-cold 50 mM Tris-HCl, pH 7.4 buffer. Nonspecific binding was measured in the presence of 10 μM SB222200 for both radioligands. The radioactivity on the filter was counted (5 min) on a Packard Top-count microplate scintillation counter with quenching correction after addition of 45 μl of microscint 40 (Can berra Packard S. A., Zurich, Switzerland) and shaking for 1 h. Inhibition curves were fitted according to the Hill equation: y=100/(1+(x/IC50)^nH), where nH=slope factor using Excel-fit 4 software (Microsoft). IC50 values were derived from the inhibition curve and the affinity constant (Ki) values were calculated using the Cheng-Prussoff equation Ki═IC50/(1+[L]/KD) where [L] is the concentration of radioligand and KD is its dissociation constant at the receptor, derived from the saturation isotherm. All experiments were performed in duplicate and the mean±standard error (SEM) of the individual Ki values was calculated.

For `CCN(NC(=O)C1(c2ccc(F)cc2)CCN(C(=O)c2ccc(-c3nc(C)no3)cc2)CC1)c1ccc(F)cc1` [Example 160, 4-(4-Fluoro-phenyl)-1-[4-(3-methyl-[1,2,4]oxodiazol-5-yl)-benzoyl]-piperidine-4-carboxylic acid N′-ethyl-#N!′-(4-fluoro-phenyl)-hydrazide], the Ki was 92 nM.
With `Cc1noc(-c2ccc(C(=O)N3CCC(C(=O)N[C@@H](C)c4ccc(F)cc4)(c4ccc(F)cn4)CC3)cc2)n1` [Example 126, 5-Fluoro-1′-[4-(3-methyl-[1,2,4]oxadiazol-5-yl)-benzoyl]-2′,3′,5′,6′-tetrahydro-1′H-[2,4′]bipyridinyl-4′-carboxylic acid [(S)-1-(4-fluoro-phenyl)-ethyl]-amide] the Ki was 93.7 nM.
`Cc1nc(-c2ccc(C(=O)N3CCC(C(=O)N[C@@H](C)c4cccc(F)c4)(c4ccc(F)cc4)CC3)cc2)no1` [Example 167, 4-(4-Fluoro-phenyl)-1-[4-(5-methyl-[1,2,4]oxadiazol-3-yl)-benzoyl]-piperidine-4-carboxylic acid [(S)-1-(3-fluoro-phenyl)-ethyl]-amide] showed a Ki of 17 nM.
Compound `C[C@H](NC(=O)C1(c2ccccc2)CCN(C(=O)c2ccc(-c3ccc(F)cc3)cc2)CC1)c1ccc(F)cc1` [Example 79, 1-(4′-Fluoro-biphenyl-4-carbonyl)-4-phenyl-piperidine-4-carboxylic acid [(S)-1-(4-fluoro-phenyl)-ethyl]-amide] has a Ki of 9.5 nM.
In the case of `C[C@H](NC(=O)C1(c2ccccc2)CCN(C(=O)c2ccc(-c3ccncc3)cc2)CC1)c1ccccc1` [Example 7, 4-Phenyl-1-(4-pyndin-4-yl-benzoyl)-piperidine-4-carboxylic acid ((S)-1-phenyl-ethyl)-amide], the Ki is reported as 39.6 nM.
In the case of `O=C(N1CCN(c2ccc(F)cc2)CC1)N1CCC(C(=O)NC(c2ccc(F)cc2)C(F)(F)F)(c2ccc(F)cc2)CC1` (stereo not drawn) [Example 176, 4-(4-Fluoro-phenyl)-1-[4-(4-fluoro-phenyl)-piperazine-1-carbonyl]-piperidine-4-carboxylic acid [2,2,2-trifluoro-1-(4-fluoro-phenyl)-ethyl]-amide], the Ki is reported as 77 nM.
Compound `Cc1nc(-c2ccc(C(=O)N3CCC(C(=O)NC(c4ccc(F)cc4)C(C)C)(c4ccc(F)cc4)CC3)cc2)no1` (stereo not drawn) [Example 164, 4-(4-Fluoro-phenyl)-1-[4-(5-methyl-[1,2,4]oxadiazol-3-yl)-benzoyl]-piperidne-4-carboxylic acid [1-(4-fluoro-phenyl)-2-methyl-propyl]-amide] has a Ki of 12 nM.
For `Cc1noc(C2CCN(C(=O)N3CCC(C(=O)N[C@@H](C)c4ccc(F)cc4)(c4ccccc4)CC3)CC2)n1` [Example 221, 1-[4-(3-Methyl-[1,2,4]oxadiazol-5-yl)-piperidine-1-carbonyl]-4-phenyl-piperidine-4-carboxylic acid [(S)-1-(4-fluoro-phenyl)-ethyl]-amide], the Ki was 11.7 nM.
With `C[C@H](NC(=O)C1(c2ccccc2)CCN(C(=O)c2ccc(N3CCN(C)CC3)cc2)CC1)c1ccccc1` [Example 14, 1-[4-(4-Methyl-piperazin-1-yl)-benzoyl]-4-phenyl-piperidine-4-carboxylic acid ((S)-l-phenyl-ethyl)-amide] the Ki was 98.1 nM.
For `CCc1nc(-c2ccc(C(=O)N3CCC(C(=O)N[C@@H](C)c4ccccc4)(c4ccccc4)CC3)cc2)no1` [Example 71, 1-[4-(5-Ethyl-[1,2,4]oxa-diazol-3-yl)-benzoyl]-4-phenyl-piperidine-4-carboxylic acid ((S)-1-phenyl-ethyl)-amide], the Ki was 28.4 nM.
Work on `N#Cc1ccc(N2CCC(C(=O)N3CCC(C(=O)NC(c4ccc(F)cc4)C(F)(F)F)(c4ccc(F)cc4)CC3)CC2)nc1` (stereo not drawn) [Example 154, 1-(5′-Cyano-3,4,5,6-tetrahydro-2H-[1,2′]bipyridinyl-4-carbonyl)-4-(4-fluoro-phenyl)-piperidine-4-carboxylic acid [2,2,2-trifluoro-1-(4-fluoro-phenyl)-ethyl]-amide] yielded a Ki of 75 nM.
`C[C@H](NC(=O)C1(c2ccccc2)CCN(C(=O)c2csc(-c3ccncc3)n2)CC1)c1ccccc1` [Example 27, 4-Phenyl-1-(2-pyridin-4-yl-thiazole-4-carbonyl)-piperidine-4-carboxylic acid ((S)-1-phenyl-ethyl)-amide] gave a Ki of 76.5 nM.
With `C[C@H](NC(=O)C1(c2ccccc2)CCN(C(=O)c2csc(-c3cccnc3)n2)CC1)c1ccccc1` [Example 28, 4-Phenyl-1-(2-pyridin-3-yl-thiazole-4-carbonyl)-piperidine-4-carboxylic acid ((S)-1-phenyl-ethyl)-amide] the Ki was 76.2 nM.
`Cc1nc(-c2ccc(C(=O)N3CCC(C(=O)N[C@@H](C)C4CCCCC4)(c4ccccc4)CC3)cc2)no1` [Example 75, 1-[4-(5-Methyl-[1,2,4]oxa-diazol-3-yl)-benzoyl]-4-phenyl-piperidine-4-carboxylic acid ((S)-1-cyclohexyl-ethyl)-amide] showed a Ki of 3.9 nM.
For `Cc1noc(-c2ccc(C(=O)N3CCC(C(=O)N[C@H](c4cccc(F)c4)C4CC4)(c4ccc(F)cc4)CC3)cc2)n1` [Example 196, 4-(4-Fluoro-phenyl)-1-[4-(3-methyl-[1,2,4]oxadiazol-5-yl)-benzoyl]-piperidine-4-carboxylic acid [(S)-cyclopropyl-(3-fluoro-phenyl)-methyl]-amide], the Ki was 2.2 nM.
With `C[C@H](NC(=O)C1(c2ccccc2)CCN(C(=O)c2ccc(-c3ccc(C(F)(F)F)cc3)cc2)CC1)c1ccccc1` [Example 5, 4-Phenyl-1-(4′-trifluoromethyl-biphenyl-4-carbonyl)-piperidine-4-carboxylic acid ((S)-1-phenyl-ethyl)-amide] the Ki was 23.9 nM.
In the case of `C[C@H](NC(=O)C1(c2ccccc2)CCN(C(=O)C2CCC(c3ccc(Cl)cc3)CC2)CC1)c1ccccc1` (stereo partly drawn) [Example 3, 1-[4-(4- Chlorophenyl)cyclohexanecarbonyl]-4-phenyl-piperidine-4-carboxylic acid ((S)-1-phenyl-ethyl)-amide], the Ki is reported as 48.2 nM.
`C[C@H](NC(=O)C1(c2ccccc2)CCN(C(=O)c2ccc(-c3nnn(C)n3)cc2)CC1)c1ccccc1` [Example 72, 1-[4-(2-Methyl-2H-tetrazol-5-yl)-benzoyl]-4-phenyl-piperidine-4-carboxylic acid ((S)-1-phenyl-ethyl)-amide] was tested, and the Ki was 15.8 nM.
For `Cc1ccc(N2CCN(C(=O)N3CCC(C(=O)N[C@@H](C)c4ccccc4)(c4ccccc4)CC3)CC2)cc1` [Example 208, 4-Phenyl-1-(4-p-tolyl-piperazine-1-carbonyl)-piperidine-4-carboxylic acid ((S)-1-phenyl-ethyl)-amide], the Ki was 70.9 nM.
Work on `Cc1noc(-c2ccc(C(=O)N3CCC(C(=O)N[C@@H](C)c4ccc(F)cc4)(C4CCCCC4)CC3)cc2)n1` [Example 109, 4-Cyclohexyl-1-[4-(3-methyl-[1,2,4]oxa-diazol-5-yl)-benzoyl]-piperidine-4-carboxylic acid [(S)-1-(4-fluoro-phenyl)-ethyl]-amide] yielded a Ki of 82 nM.
In the case of `C[C@H](NC(=O)C1(c2ccccc2)CCN(C(=O)N2CCN(c3ccc(Cl)cn3)CC2)CC1)c1ccccc1` [Example 206, 1-[4-(5-Chloro-pyridin-2-yl)-piperazine-1-carbonyl]-4-phenyl-piperidine-4-carboxylic acid ((S)-1-phenyl-ethyl)-amide], the Ki is reported as 79.8 nM.
For `O=C(c1ccc(-c2ccc(F)cc2)cc1)N1CCC(C(=O)NNc2ccc(F)c(F)c2)(c2ccc(F)cc2)CC1` [Example 191, 1-(4′-Fluoro-biphenyl-4-carbonyl)-4-(4-fluoro-phenyl)-piperidine-4-carboxylic acid N′-(3,4-difluoro-phenyl)-hydrazide], the Ki was 17 nM.
Compound `C[C@H](NC(=O)C1(c2ccc(F)cc2)CCN(C(=O)C2CCN(c3ccc(C#N)cn3)CC2)CC1)c1ccc(F)cc1` [Example 156, 1-(5′-Cyano-3,4,5,6-tetrahydro-2H-[1,2′]bipyridinyl-4-carbonyl)-4-(4-fluoro-phenyl)-piperidine-4-carboxylic acid [(S)-1-(4-fluoro-phenyl)-ethyl]-amide] has a Ki of 87 nM.
In the case of `Cc1cccc(N2CCN(C(=O)N3CCC(C(=O)N[C@@H](C)c4ccccc4)(c4ccccc4)CC3)CC2)c1` [Example 226, 4-Phenyl-1-(4-m-tolyl-piperazine-1-carbonyl)-piperidine-4-carboxylic acid ((S)-1-phenyl-ethyl)-amide], the Ki is reported as 64.8 nM.
